Laboratory results: patent US20150105252A1, “SUBSTITUTED PYRAZOLES AS HERBICIDES” (E I DU PONT DE NEMOURS AND COMPANY, priority 2013, published 2015)

What was measured:
Experiment in all cases: Test C postemergence
[1] = system: morningglory; assay type: in vivo, Ipomoea coccinea
Outline: (§1)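 Greenhouse pot test: preemergence application onto freshly seeded loam/sand mix, postemergence application onto seedlings (1–4 leaves, 2–18 cm) in peat-vermiculite substrate. Responses scored visually 13 to 15 days later relative to controls, where 0 means no effect and 100 means complete control; a dash indicates no result.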

[2] = system: corn; assay type: in vivo, Zea mays
Outline: as §1

[3] = system: velvetleaf; assay type: in vivo, Abutilon theophrasti; conditions: postemergence
Outline: as §1

[4] = system: ryegrass, Italian; assay type: in vivo, Lolium multiflorum; conditions: postemergence
Outline: as §1

[5] = system: oilseed rape; assay type: in vivo, Brassica napus; conditions: postemergence
Outline: as §1

[6] = system: kochia; assay type: in vivo, Kochia scoparia
Outline: as §1

[7] = system: galium; assay type: in vivo, Galium aparine
Outline: as §1

[8] = system: waterhemp; assay type: in vivo, Amaranthus rudis; conditions: postemergence, 250 g ai/ha; scale 0 to 100 (0 no effect, 100 complete control)
Outline: as §1

[9] = system: pigweed; assay type: in vivo, Amaranthus retroflexus; conditions: postemergence
Outline: as §1

[10] = system: lambsquarters; assay type: in vivo, Chenopodium album
Outline: as §1

[11] = system: wheat; assay type: in vivo, Triticum aestivum; conditions: postemergence
Outline: as §1

[12] = system: soybean; assay type: in vivo, Glycine max; conditions: postemergence
Outline: as §1

[13] = system: nutsedge, yellow; assay type: in vivo, Cyperus esculentus
Outline: as §1

[14] = system: foxtail, giant; assay type: in vivo, Setaria faberii
Outline: as §1

[15] = system: chickweed; assay type: in vivo, Stellaria media
Outline: as §1

[16] = system: johnsongrass; assay type: in vivo, Sorghum halepense
Outline: as §1

[17] = system: blackgrass; assay type: in vivo, Alopecurus myosuroides
Outline: as §1

[18] = Postemergence, 31 g ai/ha, visually evaluated after 13 to 15 days
[19] = postemergence, 62 g ai/ha, scale 0 to 100
[20] = postemergence, 250 g ai/ha, scale 0 to 100 (0 no effect, 100 complete control)
[21] = postemergence, 125 g ai/ha, scale 0 to 100, 0 no effect, 100 complete control
[22] = 250 g ai/ha, scale 0 to 100 (0 no effect, 100 complete control)
[23] = 125 g ai/ha, scale 0 to 100, 0 no effect, 100 complete control

## Cc1cc(C(=O)NC(C)C)nn1Cc1ccnc(C(F)(F)F)c1 [Compound 197]
[1]; [18]
  Plant response rating (scale of 0 to 100 where 0 is no effect and 100 is complete control), Morningglory: 75
[1]; [19]
  Morningglory plant response rating: 75
[1]; [20]
  Plant response rating, Morningglory: 98
[1]; [21]
  Plant response rating, Morningglory: 65
[2]; [18]
  Plant response rating (scale of 0 to 100 where 0 is no effect and 100 is complete control), Corn: 5
[2]; [19]
  Corn plant response rating: 5
[2]; [20]
  Plant response rating, Corn: 10
[2]; [21]
  Plant response rating, Corn: 5
[3]; [22]
  Plant response rating, Velvetleaf: 40
[3]; scale 0 to 100
  Velvetleaf plant response rating: 40
[4]; [22]
  Plant response rating, Ryegrass, Italian: 5
[4]; [23]
  Plant response rating, Ryegrass, Italian: 0
[5]; 62 g ai/ha, scale 0 to 100
  Oilseed Rape plant response rating: 5
[5]; [22]
  Plant response rating, Oilseed Rape: 10
[5]; [23]
  Plant response rating, Oilseed Rape: 20
[6]; [18]
  Plant response rating (scale of 0 to 100 where 0 is no effect and 100 is complete control), Kochia: 40
[6]; [19]
  Kochia plant response rating: 60
[6]; [20]
  Plant response rating, Kochia: 90
[6]; [21]
  Plant response rating, Kochia: 85
[7]; [18]
  Plant response rating (scale of 0 to 100 where 0 is no effect and 100 is complete control), Galium: 40
[7]; [19]
  Galium plant response rating: 50
[7]; [20]
  Plant response rating, Galium: 85
[7]; [21]
  Plant response rating, Galium: 50
[8]
  Plant response rating, Waterhemp: 55
[9]; 62 g ai/ha, scale 0 to 100
  Pigweed plant response rating: 60
[9]; [22]
  Plant response rating, Pigweed: 70
[9]; [23]
  Plant response rating, Pigweed: 65
[10]; [18]
  Plant response rating (scale of 0 to 100 where 0 is no effect and 100 is complete control), Lambsquarters: 55
[10]; [19]
  Lambsquarters plant response rating: 55
[10]; [20]
  Plant response rating, Lambsquarters: 85
[10]; [21]
  Plant response rating, Lambsquarters: 60
[11]; [22]
  Plant response rating, Wheat: 5
[11]; scale 0 to 100
  Wheat plant response rating: 5
[12]; [22]
  Plant response rating, Soybean: 95
[12]; [23]
  Soybean plant response rating: 90
[13]; [18]
  Plant response rating (scale of 0 to 100 where 0 is no effect and 100 is complete control), Nutsedge, Yellow: 0
[13]; [19]
  Nutsedge, Yellow plant response rating: 5
[13]; [20]
  Plant response rating, Nutsedge, Yellow: 5
[13]; [21]
  Plant response rating, Nutsedge, Yellow: 10
[14]; [18]
  Plant response rating (scale of 0 to 100 where 0 is no effect and 100 is complete control), Foxtail, Giant: 0
[14]; [19]
  Foxtail, Giant plant response rating: 0
[14]; [20]
  Plant response rating, Foxtail, Giant: 10
[14]; [21]
  Plant response rating, Foxtail, Giant: 5
[15]; [18]
  Plant response rating (scale of 0 to 100 where 0 is no effect and 100 is complete control), Chickweed: 50
[15]; [19]
  Chickweed plant response rating: 55
[15]; [20]
  Plant response rating, Chickweed: 80
[15]; [21]
  Plant response rating, Chickweed: 60
[16]; [18]
  Plant response rating (scale of 0 to 100 where 0 is no effect and 100 is complete control), Johnsongrass: 0
[16]; [19]
  Johnsongrass plant response rating: 65
[16]; [20]
  Plant response rating, Johnsongrass: 5
[16]; [21]
  Plant response rating, Johnsongrass: 0
[17]; [18]
  Plant response rating (scale of 0 to 100 where 0 is no effect and 100 is complete control), Blackgrass: 0
[17]; [19]
  Blackgrass plant response rating: 0
[17]; [20]
  Plant response rating, Blackgrass: 15
[17]; [21]
  Plant response rating, Blackgrass: 5
